{
  "source": "patent US20260317325A1",
  "about": "“AMORPHOUS SUBSTANCE AND CRYSTAL OF DIOXOPIPERIDINE COMPOUND OR PHARMACEUTICALLY ACCEPTABLE SALT THEREOF, PREPARATION METHOD, AND USE” (JIANGSU HENGRUI PHARMACEUTICALS CO., LTD., priority 2023, published 2026)",
  "remark": "listed apart in the source",
  "key": {"[1]": {"description": "Long-term/accelerated stability study: Samples of the free-state form were sealed in aluminum foil bags and left to stand under 25° C./60% RH and 40° C./75% RH conditions to study its stability.\nLong-term/accelerated stability of salt forms: Samples were sealed in aluminum foil bags and left to stand under 25° C./60% RH and 40° C./75% RH conditions to study their stability."}, "[2]": {"conditions": "high-temperature and high-humidity conditions", "description": "Influencing factor stability study: Samples of the free-state form were taken, spread in open containers, and left to stand under high-temperature (40° C. and 60° C.) and high-humidity (RH 75% and RH 92.5%) conditions for 30 days to study its stability.\nInfluencing factor stability study of salt forms: Samples of the salt forms were taken, spread in open containers, and left to stand under high-temperature (40° C. and 60° C.) and high-humidity (RH 75%) conditions for 30 days to study their stability."}, "[3]": {"conditions": "long-term accelerated conditions for 6 months"}},
  "note": "Structures can show the parent of a compound that is named as a salt. Where two headings read alike, the source gives them in different places.",
  "data": [
    {"smiles": "C[C@H]1CC2(CCN(c3ccc(C(=O)N4CCC(CN5CCN(c6cccc(N[C@H]7CCC(=O)NC7=O)c6)CC5)CC4)cc3F)CC2)CN1c1ccc(C#N)c(Cl)c1", "note": "[Amorphous form of maleate]", "values": [
      {"measurement": "stability (in words)", "setting": "[1]; long-term conditions for 6 months", "result": "good chemical and physical stability"}
    ]},
    {"smiles": "C[C@H]1CC2(CCN(c3ccc(C(=O)N4CCC(CN5CCN(c6cccc(N[C@H]7CCC(=O)NC7=O)c6)CC5)CC4)cc3F)CC2)CN1c1ccc(C#N)c(Cl)c1", "note": "[Crystal form B of succinate]", "values": [
      {"measurement": "stability (in words)", "setting": "[1]; [3]", "result": "good chemical and physical stability"}
    ]},
    {"smiles": "C[C@H]1CC2(CCN(c3ccc(C(=O)N4CCC(CN5CCN(c6cccc(N[C@H]7CCC(=O)NC7=O)c6)CC5)CC4)cc3F)CC2)CN1c1ccc(C#N)c(Cl)c1", "note": "[crystal form A of D-mandelate]", "values": [
      {"measurement": "stability (in words)", "setting": "[1]; long-term accelerated conditions for 6 months, listed as crystal form A of mandelate", "result": "good chemical and physical stability"},
      {"measurement": "crystal form before and after DVS testing", "setting": "XRPD", "result": "the crystal form did not change before and after DVS testing"},
      {"measurement": "desorption versus adsorption process", "setting": "humidity 0% to 95% RH", "result": "the desorption process of the sample overlapped with its adsorption process"}
    ]},
    {"smiles": "C[C@H]1CC2(CCN(c3ccc(C(=O)N4CCC(CN5CCN(c6cccc(N[C@H]7CCC(=O)NC7=O)c6)CC5)CC4)cc3F)CC2)CN1c1ccc(C#N)c(Cl)c1", "note": "[free-state amorphous form]", "values": [
      {"measurement": "stability (in words)", "setting": "[1]; [3]", "result": "good physical and chemical stability"},
      {"measurement": "stability (in words)", "setting": "[2]", "result": "good chemical stability"}
    ]}
  ]
}
